Holding throughout (type): cell-based
The subject of one test is BT474 cells. Nature of the test: Cell viability assay (CellTiter-Glo), BT474. Conditions: Homo sapiens, BT-474, HER2 expressing cells, 72 h. The protocol:
(§1) Cell Viability Assay for Antibody-Polymer-Drug Conjugates.
(§2) PBD compounds and conjugates thereof were evaluated for their antiproliferation properties in tumor cell lines in vitro using CellTiter-Glo® (Promega Corp). Cells were plated in black walled 96-well plate and allowed to adhere overnight at 37° C. in a humidified atmosphere of 5% CO2. BT474, SKBR3, NCI-N87 cells (HER2 expressing cells), JIMT1 cells (HER2 medium expression level cells) and MCF7 cells (HER2 low expressing levels cells) and were plated at a density of 5,000 cells per well. The next day the medium was replaced with 50 μL fresh medium and 50 μL of 2× stocks of PBD compounds or antibody-PBD conjugate were added to appropriate wells, mixed and incubated for 72 h. CellTiter-Glo® reagent was added to the wells at room temperature and the luminescent signal was measured after 10 min using a SpectraMax M5 plate reader (Molecular Devices). Dose response curves were generated using SoftMax Pro software. IC50 values were determined from four-parameter curve fitting.

The next test relates to SKBR3 cells. Nature of the test: Cell viability assay (CellTiter-Glo), SKBR3. The note with it: Homo sapiens, SK-BR-3, HER2 expressing cells, 72 h. The protocol:
as §1, §2
Background: ATP-based viability assays read luminescence as a measure of living cells.

A further test has as its system NCI-N87 cells. Kind of test: Cell viability assay (CellTiter-Glo), NCI-N87. Conditions: Homo sapiens, HER2 expressing cells, 72 h. The protocol:
as §1, §2

Another test concerns JIMT1 cells. Kind of test: Cell viability assay (CellTiter-Glo), JIMT1. Conditions: Homo sapiens, JIMT-1, HER2 medium expression level cells, 72 h. As to the method: as §1, §2
For another test, the system named is MCF7 cells. Nature of the test: Cell viability assay (CellTiter-Glo), MCF7. The note with it: Homo sapiens, HER2 low expressing levels cells, 72 h. As to the method: as §1, §2

Our source for the IC50 values is patent US10526294B2, “Pyrrolobenzodiazepines and conjugates thereof” (priority 2016, dated 2020).

Turning to `COc1cc2c(cc1OCCCC(=O)Nc1cn(C)c(C(=O)Nc3ccc(-c4cc(C(=O)O)n(C)c4)cc3)n1)N=C[C@@H]1CCCN1C2=O` [Compound 44, (S,Z)-4-(4-(4-(4-(7-methoxy-5-oxo-2,3,5,11a-tetrahydro-1H-benzo[e]pyrrolo[1,2-a][1,4]diazepin-8-yloxy)butanamido)-1-methyl-1H-imidazole-2-carboxamido)phenyl)-1-methyl-1H-pyrrole-2-carboxylic acid], the IC50 in the test on BT474 cells (PBD compounds (Table I)) was 1000 nM; in the test on SKBR3 cells (PBD compounds (Table I)), 53 nM; in the test on NCI-N87 cells (PBD compounds (Table I)), 105 nM; with JIMT1 cells (PBD compounds (Table I)) it was 109 nM; with MCF7 cells (PBD compounds (Table I)) it was 560 nM.
The corresponding values for `C=C1C[C@H]2C=Nc3cc(OCCCC(=O)Nc4cn(C)c(C(=O)Nc5ccc(-c6cc(C(=O)OCCCN)n(C)c6)cc5)n4)c(OC)cc3C(=O)N2C1` [Compound 41, (S,Z)-3-aminopropyl 4-(4-(4-(4-(7-methoxy-2-methylene-5-oxo-2,3,5,11a-tetrahydro-1H-benzo[e]pyrrolo[1,2-a][1,4]diazepin-8-yloxy)butanamido)-1-methyl-1H-imidazole-2-carboxamido)phenyl)-1-methyl-1H-pyrrole-2-carboxylate] are 300 nM, 3 nM, 6.3 nM, 0.8 nM and 140 nM.
Take `C=C1CC2C=Nc3cc(OCCCC(=O)Nc4cn(C)c(C(=O)Nc5ccc(-c6cc(C(=O)n7ccc8cc(C(=O)OC)ccc87)n(C)c6)cc5)n4)c(OC)cc3C(=O)N2C1` (stereo not drawn) [Compound 109, methyl 1-(4-(4-(4-(4-((7-methoxy-2-methylene-5-oxo-2,3,5,11a-tetrahydro-1H-benzo[e]pyrrolo[1,2-a][1,4]diazepin-8-yl)oxy)butanamido)-1-methyl-1H-imidazole-2-carboxamido)phenyl)-1-methyl-1H-pyrrole-2-carbonyl)-1H-indole-5-carboxylate]: the IC50 in the test with BT474 cells (conjugates (Table II)) was 0.09 nM; with NCI-N87 cells (conjugates (Table II)), 0.14 nM; with JIMT1 cells (conjugates (Table II)), 0.28 nM; in the test on MCF7 cells (conjugates (Table II)), 0.18 nM.
As to `C=C1CC2C=Nc3cc(OCCCC(=O)Nc4cn(C)c(C(=O)Nc5ccc(-c6cc(C(=O)n7ccc8cc(N)ccc87)n(C)c6)cc5)n4)c(OC)cc3C(=O)N2C1` (stereo not drawn) [Compound 105, (Z)—N-(4-(5-(5-amino-1H-indole-1-carbonyl)-1-methyl-1H-pyrrol-3-yl)phenyl)-4-(4-(7-methoxy-2-methylene-5-oxo-2,3,5,11a-tetrahydro-1H-benzo[e]pyrrolo[1,2-a][1,4]diazepin-8-yloxy)butanamido)-1-methyl-1H-imidazole-2-carboxamide], the IC50 in the test on BT474 cells (conjugates (Table II)) worked out at 0.09 nM; in the test on SKBR3 cells (conjugates (Table II)) it was 0.007 nM; in the test on NCI-N87 cells (conjugates (Table II)), 0.03 nM; with JIMT1 cells (conjugates (Table II)) it was 0.04 nM; with MCF7 cells (conjugates (Table II)), 0.03 nM.
As to `C=C1C[C@H]2C=Nc3cc(OCCCC(=O)Nc4cc(C(=O)Nc5ccc(-c6cc(C(=O)NCCCO)n(C)c6)cc5)n(C)c4)c(OC)cc3C(=O)N2C1` [Compound 37, (S,Z)—N-(3-hydroxypropyl)-4-(4-(4-(4-(7-methoxy-2-methylene-5-oxo-2,3,5,11a-tetrahydro-1H-benzo[e]pyrrolo[1,2-a][1,4]diazepin-8-yloxy)butanamido)-1-methyl-1H-pyrrole-2-carboxamido)phenyl)-1-methyl-1H-pyrrole-2-carboxamide], the IC50 in the test with BT474 cells (PBD compounds (Table I)) came to 2.9 nM; in the test with SKBR3 cells (PBD compounds (Table I)) it was 0.9 nM; in the test on NCI-N87 cells (PBD compounds (Table I)), 1 nM; in the test with JIMT1 cells (PBD compounds (Table I)), 1 nM; with MCF7 cells (PBD compounds (Table I)) it was 4.9 nM.
On to `C=C1C[C@H]2C=Nc3cc(OCCCC(=O)Nc4cn(C)c(C(=O)Nc5cc(C(=O)Nc6ccc(-c7nc8cc(N)ccc8[nH]7)cc6)n(C)c5)n4)c(OC)cc3C(=O)N2C1` [Compound 24, (S,Z)—N-(5-(4-(5-amino-1H-benzo[d]imidazol-2-yl)phenylcarbamoyl)-1-methyl-1H-pyrrol-3-yl)-4-(4-(7-methoxy-2-methylene-5-oxo-2,3,5,11a-tetrahydro-1H-benzo[e]pyrrolo[1,2-a][1,4]diazepin-8-yloxy)butanamido)-1-methyl-1H-imidazole-2-carboxamide], for which the IC50 was 21 nM in the test with BT474 cells (PBD compounds (Table I)); 1 nM in the test with SKBR3 cells (PBD compounds (Table I)); 3 nM with NCI-N87 cells (PBD compounds (Table I)); 1.8 nM with JIMT1 cells (PBD compounds (Table I)); 34 nM with MCF7 cells (PBD compounds (Table I)).
Take `C=C1C[C@H]2C=Nc3cc(OCCCC(=O)Nc4cn(C)c(C(=O)Nc5ccc(-c6cc(C(=O)NCCCO)n(C)c6)cc5)n4)c(OC)cc3C(=O)N2C1` [Compound 39, (S)—N-(4-(5-((3-hydroxypropyl)carbamoyl)-1-methyl-1H-pyrrol-3-yl)phenyl)-4-(4-((7-methoxy-2-methylene-5-oxo-2,3,5,11a-tetrahydro-1H-benzo[e]pyrrolo[1,2-a][1,4]diazepin-8-yl)oxy)butanamido)-1-methyl-1H-imidazole-2-carboxamide]: the IC50 is 2.4 nM in the test with BT474 cells (PBD compounds (Table I)), 0.6 nM with SKBR3 cells (PBD compounds (Table I)), 0.4 nM in the test on NCI-N87 cells (PBD compounds (Table I)) and 0.9 nM in the test with JIMT1 cells (PBD compounds (Table I)).
As to `C=C1C[C@H]2C=Nc3cc(OCCCC(=O)Nc4cn(C)c(C(=O)Nc5ccc(-c6cc(C(=O)NC[C@H](C)O)n(C)c6)cc5)n4)c(OC)cc3C(=O)N2C1` [Compound 42, N-(4-(5-((S)-2-hydroxypropylcarbamoyl)-1-methyl-1H-pyrrol-3-yl)phenyl)-4-(4-((S,Z)-7-methoxy-2-methylene-5-oxo-2,3,5,11a-tetrahydro-1H-benzo[e]pyrrolo[1,2-a][1,4]diazepin-8-yloxy)butanamido)-1-methyl-1H-imidazole-2-carboxamide], the IC50 in the test with BT474 cells (PBD compounds (Table I)) was determined as 5.1 nM; with SKBR3 cells (PBD compounds (Table I)) it was 1.4 nM; in the test on NCI-N87 cells (PBD compounds (Table I)) it was 1.4 nM; in the test on JIMT1 cells (PBD compounds (Table I)), 1.2 nM; with MCF7 cells (PBD compounds (Table I)) it was 4.5 nM.
For `C=C1C[C@H]2C=Nc3cc(OCCCC(=O)Nc4cn(C)c(C(=O)Nc5ccc(-c6cc(C(=O)O)n(C)c6)cc5)n4)c(OC)cc3C(=O)N2C1` [Compound 43, (S,Z)-4-(4-(4-(4-(7-methoxy-2-methylene-5-oxo-2,3,5,11a-tetrahydro-1H-benzo[e]pyrrolo[1,2-a][1,4]diazepin-8-yloxy)butanamido)-1-methyl-1H-imidazole-2-carboxamido)phenyl)-1-methyl-1H-pyrrole-2-carboxylic acid], the IC50 in the test with BT474 cells (PBD compounds (Table I)) was 34.3 nM; in the test on SKBR3 cells (PBD compounds (Table I)), 8.2 nM; in the test on NCI-N87 cells (PBD compounds (Table I)), 12 nM; in the test with JIMT1 cells (PBD compounds (Table I)), 33.2 nM; with MCF7 cells (PBD compounds (Table I)), 250 nM.
As to `C=C1C[C@H]2C=Nc3cc(OCCCC(=O)Nc4cn(C)c(C(=O)Nc5ccc(-c6cc7cc(N)ccc7[nH]6)cc5)n4)c(OC)cc3C(=O)N2C1` [Compound 18, (S)—N-(4-(5-amino-1H-indol-2-yl)phenyl)-4-(4-((7-methoxy-2-methylene-5-oxo-2,3,5,11a-tetrahydro-1H-benzo[e]pyrrolo[1,2-a][1,4]diazepin-8-yl)oxy)butanamido)-1-methyl-1H-imidazole-2-carboxamide], the IC50 in the test with BT474 cells (PBD compounds (Table I)) was 0.5 nM; with SKBR3 cells (PBD compounds (Table I)) it was 0.08 nM; with NCI-N87 cells (PBD compounds (Table I)) it was 0.2 nM; with JIMT1 cells (PBD compounds (Table I)), 0.2 nM; in the test on MCF7 cells (PBD compounds (Table I)) it was 0.7 nM.
`C=C1CC2C=Nc3cc(OCCCC(=O)Nc4cn(C)c(C(=O)Nc5ccc(-c6cc(C(=O)n7ccc8cc(OC)ccc87)n(C)c6)cc5)n4)c(OC)cc3C(=O)N2C1` (stereo not drawn) [Compound 107, (Z)—N-(4-(5-(5-methoxy-1H-indole-1-carbonyl)-1-methyl-1H-pyrrol-3-yl)phenyl)-4-(4-(7-methoxy-2-methylene-5-oxo-2,3,5,11a-tetrahydro-1H-benzo[e]pyrrolo[1,2-a][1,4]diazepin-8-yloxy)butanamido)-1-methyl-1H-imidazole-2-carboxamide]: the IC50 turned out to be 0.16 nM in the test with BT474 cells (conjugates (Table II)); 0.02 nM in the test with SKBR3 cells (conjugates (Table II)); 0.03 nM in the test on NCI-N87 cells (conjugates (Table II)); 0.03 nM in the test on JIMT1 cells (conjugates (Table II)); 0.07 nM in the test on MCF7 cells (conjugates (Table II)).
`C=C1C[C@H]2C=Nc3cc(OCCCC(=O)Nc4cn(C)c(C(=O)Nc5ccc(-c6cc7cc(OC)ccc7[nH]6)cc5)n4)c(OC)cc3C(=O)N2C1` [Compound 108, (S,Z)—N-(4-(5-methoxy-1H-indol-2-yl)phenyl)-4-(4-(7-methoxy-2-methylene-5-oxo-2,3,5,11a-tetrahydro-1H-benzo[e]pyrrolo[1,2-a][1,4]diazepin-8-yloxy)butanamido)-1-methyl-1H-imidazole-2-carboxamide]: the IC50 in the test with BT474 cells (conjugates (Table II)) was 0.02 nM; in the test on SKBR3 cells (conjugates (Table II)), 0.05 nM; in the test on NCI-N87 cells (conjugates (Table II)), 0.04 nM; in the test on MCF7 cells (conjugates (Table II)), 0.43 nM.

Broadly, the IC50 is the concentration needed to halve the response being measured. High values mean weaker potency, low ones greater potency.
